Results: PubChem BioAssay AID248 (DTP/NCI, 2004)
Inconclusive results and toxic doses are left out. Rule as the data show it: active = T/C of 150% or more; inactive = T/C below 125%.

Tested on: L1210 leukemia ip in BDF1 mice, survival T/C
Test: NCI In Vivo Anticancer Drug Screen. Data for tumor model L1210 Leukemia (intraperitoneal) in B6D2F1 (BDF1) mice
Conditions: endpoint: mean survival time, higher = longer survival
Summary of the method: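 In this screen, tumor-bearing mice given compound are compared to those given vehicle, and their survival values are reported as a treated-to-control quotient.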

[1] = dose: 100.0 mg/kg/injection, schedule: Q01DX001 (ip), vehicle: saline
[2] = dose: 200.0 mg/kg/injection, schedule: Q01DX001 (ip), vehicle: saline
[3] = dose: 400.0 mg/kg/injection, schedule: Q01DX001 (ip), vehicle: saline
[4] = dose: 100.0 mg/kg/injection, schedule: Q01DX009 (ip), vehicle: saline with Tween-80
[5] = dose: 100.0 mg/kg/injection, schedule: Q04DX003 (ip), vehicle: saline with Tween-80
[6] = dose: 200.0 mg/kg/injection, schedule: Q04DX003 (ip), vehicle: saline with Tween-80
[7] = dose: 25.0 mg/kg/injection, schedule: Q01DX009 (ip), vehicle: saline
[8] = dose: 100.0 mg/kg/injection, schedule: Q04DX003 (ip), vehicle: saline
[9] = dose: 200.0 mg/kg/injection, schedule: Q01DX009 (ip), vehicle: saline with Tween-80
[10] = dose: 400.0 mg/kg/injection, schedule: Q01DX009 (ip), vehicle: saline with Tween-80
[11] = dose: 400.0 mg/kg/injection, schedule: Q04DX003 (ip), vehicle: saline with Tween-80
[12] = dose: 100.0 mg/kg/injection, schedule: Q04DX003 (ip), vehicle: Klucel (hydroxypropylcellulose) (HPC)
[13] = dose: 50.0 mg/kg/injection, schedule: Q01DX009 (ip), vehicle: saline
[14] = dose: 100.0 mg/kg/injection, schedule: Q01DX009 (ip), vehicle: Klucel (hydroxypropylcellulose) (HPC)
[15] = dose: 200.0 mg/kg/injection, schedule: Q01DX009 (ip), vehicle: Klucel (hydroxypropylcellulose) (HPC)
[16] = dose: 400.0 mg/kg/injection, schedule: Q01DX009 (ip), vehicle: Klucel (hydroxypropylcellulose) (HPC)

Measured: T/C

NC1CCC(CC(=O)O)CC1 (stereo unspecified)
inactive: [1] 105 % of control | [2] 89 % of control | [3] 96 % of control

COc1cc(C=NCCN=Cc2cc(OC)c(OC)c(OC)c2)cc(OC)c1OC
inactive: dose: 50.0 mg/kg/injection, schedule: Q01DX009 (ip), vehicle: saline with Tween-80 94 % of control | dose: 50.0 mg/kg/injection, schedule: Q04DX003 (ip), vehicle: saline with Tween-80 94 % of control | [4] 100 % of control | [5] 98 % of control | [6] 105 % of control

CNN
inactive: dose: 20.0 mg/kg/injection, schedule: Q04DX003 (ip), vehicle: saline 101 % of control | [7] 103 % of control | dose: 40.0 mg/kg/injection, schedule: Q04DX003 (ip), vehicle: saline 121 % of control | dose: 80.0 mg/kg/injection, schedule: Q04DX003 (ip), vehicle: saline 111 % of control | [8] 96 % of control

CCCCCC(=O)N(CC)C(=NCC)c1ccc(NC(=O)c2ccc(C(=O)Nc3ccc(C(=NCC)N(CC)C(=O)CCCCC)cc3)cc2)cc1
inactive: dose: 3.12 mg/kg/injection, schedule: Q01DX015 (ip), vehicle: methylcellulose (MC) 100 % of control | dose: 6.25 mg/kg/injection, schedule: Q01DX015 (ip), vehicle: methylcellulose (MC) 102 % of control | dose: 12.5 mg/kg/injection, schedule: Q01DX015 (ip), vehicle: methylcellulose (MC) 94 % of control | dose: 25.0 mg/kg/injection, schedule: Q01DX015 (ip), vehicle: methylcellulose (MC) 88 % of control | dose: 50.0 mg/kg/injection, schedule: Q01DX015 (ip), vehicle: methylcellulose (MC) 100 % of control | dose: 100.0 mg/kg/injection, schedule: Q01DX015 (ip), vehicle: methylcellulose (MC) 100 % of control | dose: 200.0 mg/kg/injection, schedule: Q01DX015 (ip), vehicle: methylcellulose (MC) 90 % of control | dose: 400.0 mg/kg/injection, schedule: Q01DX015 (ip), vehicle: methylcellulose (MC) 90 % of control

Cc1ccnc(NS(=O)(=O)c2ccc(N=Nc3c(N)nc(N)nc3N)cc2)n1
inactive: [1] 92 % of control | [2] 97 % of control | [3] 121 % of control

CC1C=CCP1(C)=O (stereo unspecified)
inactive: [4] 91 % of control | [9] 96 % of control | [10] 94 % of control

CC12CCC(O)C(C)(C)C1CCC1=C2CCC2(C)C(c3ccoc3)CCC12C (stereo unspecified)
inactive: dose: 50.0 mg/kg/injection, schedule: Q01DX001 (sc), vehicle: steriod suspending solution 111 % of control | dose: 100.0 mg/kg/injection, schedule: Q01DX001 (sc), vehicle: steriod suspending solution 115 % of control | dose: 200.0 mg/kg/injection, schedule: Q01DX001 (sc), vehicle: steriod suspending solution 105 % of control | dose: 400.0 mg/kg/injection, schedule: Q01DX001 (sc), vehicle: steriod suspending solution 109 % of control

CC(C)(C)NC(=O)Nc1cccc2c(O)cccc12
inactive: dose: 100.0 mg/kg/injection, schedule: Q04DX002 (ip), vehicle: saline with Tween-80 95 % of control | dose: 200.0 mg/kg/injection, schedule: Q04DX002 (ip), vehicle: saline with Tween-80 95 % of control | dose: 400.0 mg/kg/injection, schedule: Q04DX002 (ip), vehicle: saline with Tween-80 98 % of control

Cc1ccc2c(c1)N(CCCN(C)C)c1ccccc1S2
inactive: dose: 12.5 mg/kg/injection, schedule: Q04DX003 (ip), vehicle: saline 102 % of control | dose: 25.0 mg/kg/injection, schedule: Q04DX003 (ip), vehicle: saline 116 % of control

Nc1ccc(Nc2cc(S(=O)(=O)O)c(N)c3c2C(=O)c2ccccc2C3=O)cc1
inactive: [1] 97 % of control | [3] 93 % of control

COC(=O)C(=C(c1ccccc1)c1ccccc1)c1ccccc1C(=O)O
inactive: [4] 90 % of control | [5] 101 % of control | [9] 88 % of control | [6] 93 % of control | [10] 96 % of control | [11] 92 % of control

Cc1nc(N)[nH]c(=O)c1CCCOc1ccc([N+](=O)[O-])cc1
inactive: dose: 12.5 mg/kg/injection, schedule: Q04DX002 (ip), vehicle: saline 106 % of control | dose: 25.0 mg/kg/injection, schedule: Q04DX002 (ip), vehicle: saline 102 % of control | dose: 50.0 mg/kg/injection, schedule: Q04DX002 (ip), vehicle: saline 95 % of control

O=C(OCCl)c1ccc(Cl)c(Cl)c1
inactive: dose: 25.0 mg/kg/injection, schedule: Q04DX003 (ip), vehicle: Klucel (hydroxypropylcellulose) (HPC) 95 % of control | dose: 50.0 mg/kg/injection, schedule: Q04DX003 (ip), vehicle: Klucel (hydroxypropylcellulose) (HPC) 98 % of control | [12] 101 % of control

CCCCCCCCCCCCCC[n+]1ccc(C#N)cc1
inactive: dose: 7.5 mg/kg/injection, schedule: Q04DX003 (ip), vehicle: saline 101 % of control | dose: 15.0 mg/kg/injection, schedule: Q04DX003 (ip), vehicle: saline 95 % of control | dose: 30.0 mg/kg/injection, schedule: Q04DX003 (ip), vehicle: saline 96 % of control

OCCOc1ccc(Br)cc1
inactive: dose: 100.0 mg/kg/injection, schedule: Q04DX002 (ip), vehicle: Klucel (hydroxypropylcellulose) (HPC) 92 % of control | dose: 200.0 mg/kg/injection, schedule: Q04DX002 (ip), vehicle: Klucel (hydroxypropylcellulose) (HPC) 95 % of control | dose: 400.0 mg/kg/injection, schedule: Q04DX002 (ip), vehicle: Klucel (hydroxypropylcellulose) (HPC) 92 % of control

CCN(CC)CCCOC(=O)c1ccc(NC(C)(C)[N+](=O)[O-])cc1
inactive: [7] 98 % of control | [13] 91 % of control | [1] 90 % of control

CC1CCN(C(CC(=O)c2ccccc2)C(=O)c2ccccc2)CC1 (stereo unspecified)
inactive: dose: 50.0 mg/kg/injection, schedule: Q01DX001 (ip), vehicle: saline 104 % of control | [1] 98 % of control | [2] 102 % of control | [3] 96 % of control

Cc1ccc(NC(=O)Nc2ccccc2Cl)cc1Cl
inactive: [14] 100 % of control | [12] 112 % of control | [15] 98 % of control | dose: 200.0 mg/kg/injection, schedule: Q04DX003 (ip), vehicle: Klucel (hydroxypropylcellulose) (HPC) 96 % of control | [16] 100 % of control | dose: 400.0 mg/kg/injection, schedule: Q04DX003 (ip), vehicle: Klucel (hydroxypropylcellulose) (HPC) 94 % of control

COC(=O)C(N=O)C(=O)OC
inactive: [1] 104 % of control | [2] 109 % of control | [3] 106 % of control

O=C(Nc1ccccc1C(F)(F)F)N(CCO)C1CCCCC1
inactive: [14] 100 % of control | [15] 103 % of control | [16] 101 % of control

Cc1ccc([N+](=O)[O-])cc1NS(=O)(=O)c1cc(Cl)c(Cl)cc1Cl
inactive: [14] 95 % of control | [15] 108 % of control | [16] 90 % of control

CCCCCC(=N\N=C(N)N)/C(C)=N/N=C(N)N
inactive: dose: 7.5 mg/kg/injection, schedule: Q01DX Z (ip), vehicle: saline 106 % of control | dose: 15.0 mg/kg/injection, schedule: Q01DX Z (ip), vehicle: saline 111 % of control | dose: 30.0 mg/kg/injection, schedule: Q01DX Z (ip), vehicle: saline 93 % of control

COc1cccc(CC2=NCCc3cc(OC)c(OC)cc32)c1
inactive: [7] 103 % of control | [13] 101 % of control | dose: 100.0 mg/kg/injection, schedule: Q01DX009 (ip), vehicle: saline 97 % of control | [8] 98 % of control

CCCN(CCC)c1ccc(N=Nc2cc(Cl)ccc2Cl)cc1
inactive: [5] 91 % of control | [6] 93 % of control | [11] 91 % of control

Cc1cc(C(=O)O)c(C)c2c1sc1ccccc12
inactive: [1] 87 % of control | [2] 107 % of control

CC(Cl)CN(Cc1cc(O)c(CN(CC(C)Cl)CC(C)Cl)cc1O)CC(C)Cl (stereo unspecified)
inactive: dose: 50.0 mg/kg/injection, schedule: Q01DX001 (ip), vehicle: carboxymethylcellulose (CMC) 105 % of control | dose: 100.0 mg/kg/injection, schedule: Q01DX001 (ip), vehicle: carboxymethylcellulose (CMC) 94 % of control | dose: 200.0 mg/kg/injection, schedule: Q01DX001 (ip), vehicle: carboxymethylcellulose (CMC) 95 % of control | dose: 400.0 mg/kg/injection, schedule: Q01DX001 (ip), vehicle: carboxymethylcellulose (CMC) 90 % of control

CSC1C(O)C(CO)OC1n1cnc2c(N)ncnc21 (stereo unspecified)
inactive: dose: 100.0 mg/kg/injection, schedule: Q01DX005 (ip), vehicle: saline 100 % of control | dose: 200.0 mg/kg/injection, schedule: Q01DX005 (ip), vehicle: saline 106 % of control
